What was measured:
Jurkat [1] = assay: confluency relative to DMSO, 18 h (ratio); higher = more viable
In short: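 Jurkat cells and primary CD4+/CD8+ T cells, naive or activated with CD3/CD28 Dynabeads for 48 h, were treated with compound (1 nM–10 µM, log10 steps) for 18 h at 37 °C. Following transfer of 100 µl into 96-well plates with IncuCyte Cytotox Dye and alamarBlue, wells were imaged at ×10, five images per well, each hour for 3 h. Confluency, obtained with the IncuCyte Basic Analyzer from phase-contrast images, is normalised to the mean of the control wells.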

Jurkat [2] = assay: metabolic activity relative to DMSO, 18 h (ratio); higher = more viable
In short: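 Jurkat or primary CD4+/CD8+ T cells (naive, or activated 48 h with CD3/CD28 Dynabeads) were treated 18 h with compound at 1 nM–10 µM (log10 steps) at 37 °C, 5% CO2. Then 100 µl of suspension went into 96-well plates with alamarBlue (10% v/v final). After 3.5 h, fluorescence was read on a FluoStar Omega (excitation 544 nm, emission 584 nm). Metabolic activity is normalised to mean DMSO controls.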

Jurkat [3] = assay: cytotoxicity relative to DMSO, 18 h (ratio); higher = less cell death (drugs called cytotoxic fall below 1)
In short: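 Fluorescence was imaged at ×10, five images per well, every hour for 3 h, in 96-well plates holding 100 µl of treated cell suspension and IncuCyte Cytotox Dye at 250 nM final. Before plating, Jurkat cells or primary CD4+/CD8+ T cells (naive, or activated 48 h with CD3/CD28 Dynabeads) had been treated for 18 h with compound across 1 nM–10 µM in log10 steps at 37 °C, 5% CO2. Cytotoxicity values were based on these IncuCyte signals after confluency correction and normalisation to the mean of control wells.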

| Compound | confluency (Jurkat [1]; 1 nM) | confluency (Jurkat [1]; 10 nM) | confluency (Jurkat [1]; 100 nM) | confluency (Jurkat [1]; 1000 nM) | confluency (Jurkat [1]; 10000 nM) | metabolic activity (Jurkat [2]; 1 nM) | metabolic activity (Jurkat [2]; 10 nM) | metabolic activity (Jurkat [2]; 100 nM) | metabolic activity (Jurkat [2]; 1000 nM) | metabolic activity (Jurkat [2]; 10000 nM) | cytotoxicity (Jurkat [3]; 1 nM) | cytotoxicity (Jurkat [3]; 10 nM) | cytotoxicity (Jurkat [3]; 100 nM) | cytotoxicity (Jurkat [3]; 1000 nM) | cytotoxicity (Jurkat [3]; 10000 nM) |
| --- | --- | --- | --- | --- | --- | --- | --- | --- | --- | --- | --- | --- | --- | --- | --- |
| CCC(Nc1ncnc2nc[nH]c12)c1nc2cccc(F)c2c(=O)n1-c1ccccc1 (stereo not given) [Idelalisib] | 1.07 | 1.09 | 1.1 | 0.986 | 1.07 | 0.825 | 0.959 | 0.958 | 0.983 | 0.993 | 1.05 | 1.08 | 1.09 | 0.927 | 1 |
| CC(C)CC(NC(=O)CNC(=O)c1cc(Cl)ccc1Cl)B(O)O (stereo not given) [Ixazomib] | 0.945 | 0.97 | 1.12 | 0.922 | 1.09 | 0.928 | 1.04 | 0.924 | 0.382 | 0.121 | 0.958 | 1 | 1.03 | 0.682 | 0.631 |
| Cc1cc(C)cc(C(=O)NOCCCCCC(=O)NO)c1 [LMK235] | 0.982 | 1.03 | 1.06 | 1.16 | 1.3 | 0.997 | 0.979 | 1.04 | 0.905 | 0.694 | 0.947 | 0.991 | 1.08 | 1.04 | 1.26 |
| Nc1cccc2c1CN(C1CCC(=O)NC1=O)C2=O (stereo not given) [Lenalidomide] | 0.996 | 0.912 | 0.993 | 0.96 | 0.93 | 0.931 | 0.895 | 0.809 | 0.905 | 0.96 | 0.945 | 0.905 | 0.96 | 0.912 | 0.892 |
| COc1cc(C)[nH]c(=O)c1CNC(=O)c1c(C)n(C(C)C2CCN(CC(F)(F)F)CC2)c2ccccc12 (stereo not given) [Lirametostat] | 1.01 | 1.03 | 1.02 | 0.984 | 0.929 | 1.01 | 1.02 | 1.01 | 1.02 | 0.856 | 1 | 1 | 1.03 | 0.972 | 0.892 |
| CC(C)CC(C=O)NC(=O)C(CC(C)C)NC(=O)C(CC(C)C)NC(=O)OCc1ccccc1 (stereo not given) [MG-132] | 1.01 | 0.99 | 1.02 | 0.605 | 0.69 | 0.799 | 0.84 | 0.938 | 0.359 | 0.11 | 0.953 | 0.939 | 0.989 | 0.471 | 0.461 |
| O=C(O)C1(Cc2cccc(Nc3nccs3)n2)CCC(Oc2cccc(Cl)c2F)CC1 (stereo not given) [MK-5108] | 1.01 | 1.02 | 0.89 | 0.865 | 0.868 | 1.02 | 1.05 | 0.922 | 0.763 | 0.756 | 0.966 | 1.05 | 0.922 | 0.881 | 0.932 |
